Where two headings read alike, the source gives them in different places.
Assays:
MAO from bovine serum = system: MAO from bovine serum; parameters: method as in PMID 1913999; conditions: read-out: Concentration for 50% inhibition of MAO activity; cited from earlier work
hMAO-B = molecular target: T1, hMAO-B (Homo sapiens, UniProt P27338); test: biochemical; conditions: for Ki: inhibition constant from secondary plots
T1 sequence (P27338 1-520): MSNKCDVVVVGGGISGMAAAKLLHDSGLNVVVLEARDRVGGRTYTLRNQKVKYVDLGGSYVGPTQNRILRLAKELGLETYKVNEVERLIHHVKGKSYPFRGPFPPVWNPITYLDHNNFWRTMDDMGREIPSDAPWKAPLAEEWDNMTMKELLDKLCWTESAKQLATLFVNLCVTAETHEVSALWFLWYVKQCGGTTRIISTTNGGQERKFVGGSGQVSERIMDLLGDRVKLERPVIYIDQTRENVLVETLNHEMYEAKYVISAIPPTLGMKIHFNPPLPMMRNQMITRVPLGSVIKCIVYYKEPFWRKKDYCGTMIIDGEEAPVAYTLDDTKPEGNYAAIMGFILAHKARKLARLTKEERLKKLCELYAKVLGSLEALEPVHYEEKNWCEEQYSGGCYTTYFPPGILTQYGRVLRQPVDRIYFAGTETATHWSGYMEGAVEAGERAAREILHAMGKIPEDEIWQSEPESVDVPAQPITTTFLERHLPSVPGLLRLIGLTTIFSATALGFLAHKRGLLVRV

human MAO-B (hMAO-B) = conditions: cited from earlier work
[1] = molecular target: T2, human dopamine D2L receptor (Homo sapiens, UniProt P14416); test: Radioligand binding assay, [3H]methylspiperone, HEK-D2LR membranes; conditions: duplicate
T2 construct: host or cells: HEK-293

human MAO-A (hMAO-A) = conditions: cited from earlier work
[2] = molecular target: T3, human dopamine D3 receptor (Homo sapiens, UniProt P35462); conditions: 100 µM
rat brain MAO-A = conditions: cited from earlier work
[3] = molecular target: T4, human vasopressin V1A receptor (Homo sapiens, UniProt P37288); test: cell-based
[4] = molecular target: human dopamine D1 receptor (Homo sapiens, UniProt P21728); test: cell-based
rat brain MAO-B = conditions: cited from earlier work
[5] = molecular target: T3, human dopamine D3 receptor; test: cell-based
[6] = molecular target: T4, human vasopressin V1A receptor; conditions: agonist binding, [3H]AVP, 100 µM, duplicate
hMAO-A = molecular target: T5, hMAO-A (Homo sapiens, UniProt P21397); test: Recombinant hMAO-A inhibitory assay (luminescent) and enzyme kinetics; assay type: biochemical
T5 construct: purchased Sigma Aldrich
T5 sequence (P21397 1-527): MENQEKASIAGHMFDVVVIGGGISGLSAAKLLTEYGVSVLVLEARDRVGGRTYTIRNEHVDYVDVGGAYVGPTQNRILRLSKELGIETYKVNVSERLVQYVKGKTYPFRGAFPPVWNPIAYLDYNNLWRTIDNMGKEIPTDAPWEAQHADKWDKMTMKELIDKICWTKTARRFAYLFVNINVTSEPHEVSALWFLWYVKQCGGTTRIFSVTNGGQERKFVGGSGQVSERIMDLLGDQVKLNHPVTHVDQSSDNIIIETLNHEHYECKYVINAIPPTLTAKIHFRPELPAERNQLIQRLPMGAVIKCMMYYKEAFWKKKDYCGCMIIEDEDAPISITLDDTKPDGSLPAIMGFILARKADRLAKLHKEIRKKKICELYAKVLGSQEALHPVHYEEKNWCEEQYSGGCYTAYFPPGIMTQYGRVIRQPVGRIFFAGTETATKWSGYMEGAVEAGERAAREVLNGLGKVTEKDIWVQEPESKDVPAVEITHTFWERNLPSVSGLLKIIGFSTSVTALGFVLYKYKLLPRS

[7] = molecular target: T6, human dopamine D4 receptor (Homo sapiens, UniProt P21917); test: Radioligand binding assay, [3H]methylspiperone, CHO-D4R membranes; conditions: duplicate, read-out: % Inhibition of control-specific binding
T6 construct: host or cells: CHO
T6 sequence (P21917 1-419): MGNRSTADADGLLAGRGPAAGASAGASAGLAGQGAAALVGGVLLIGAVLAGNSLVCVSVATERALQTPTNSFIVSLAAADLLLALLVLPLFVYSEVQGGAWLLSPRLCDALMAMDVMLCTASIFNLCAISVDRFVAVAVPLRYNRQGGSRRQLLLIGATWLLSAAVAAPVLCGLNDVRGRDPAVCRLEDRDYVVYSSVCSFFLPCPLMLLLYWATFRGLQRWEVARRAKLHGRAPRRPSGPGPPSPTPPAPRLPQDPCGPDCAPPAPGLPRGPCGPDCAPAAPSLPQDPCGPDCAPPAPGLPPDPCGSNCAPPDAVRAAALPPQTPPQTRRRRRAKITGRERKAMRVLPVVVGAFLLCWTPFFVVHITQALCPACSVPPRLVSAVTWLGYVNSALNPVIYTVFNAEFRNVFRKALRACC

[8] = ILG isolated from Colvillea racemosa

O=C(/C=C/c1ccc(O)cc1)c1ccc(O)cc1O [Isoliquiritigenin, 4,2′,4′-Trihydroxychalcone]
IC50 (MAO from bovine serum): > 200 µM | IC50 (hMAO-B): 0.33 ± 0.02 µM | Ki (hMAO-B; hMAO-B Kic): 0.094 µM | Ki (hMAO-B; hMAO-B Kiu): 0.71 ± 0.01 µM | IC50 (human MAO-B (hMAO-B); [8]): 0.51 ± 0.01 µM | IC50 (human MAO-B (hMAO-B); earlier report): 21.8 µM | % Inhibition of control-specific binding ([1]; 100 µM): no binding affinity | inhibition at 100 µM ([1]; read-out: % Inhibition of control-specific binding): 21.3% | IC50 (human MAO-A (hMAO-A); [8]): 22.7 ± 1.84 µM | IC50 (human MAO-A (hMAO-A); earlier report): 41.5 µM | % Stimulation (percentage of control agonist response) [2]: 92.7 ± 0.5% | IC50 (rat brain MAO-A; ILG isolated from Sinofranchetia chinensis, rat brain, read-out: rMAO-A IC50): 13.9 µM | rMAO-A inhibition type (rat brain MAO-A; previous study): non-competitive inhibition | EC50 [3]: 78.6 ± 2.7 µM | IC50 [4]: 68.9 ± 0.2 µM | IC50 (rat brain MAO-B; ILG isolated from Sinofranchetia chinensis, rat brain, read-out: rMAO-B IC50): 47.2 µM | rMAO-B inhibition type (rat brain MAO-B; previous study): mixed inhibition | EC50 [5]: 62.3 ± 0.2 µM | % Inhibition of control-specific binding [6]: 60.8% | Ki (hMAO-A; inhibition constant from secondary plots): 0.16 µM | IC50 (hMAO-A; recombinant hMAO-A, mean ± standard deviation of triplicate assays): 0.68 ± 0.03 µM | inhibition at 100 µM [7]: 44.8%

O=C1C[C@@H](c2ccc(O)cc2)Oc2cc(O)ccc21 [LG, reference compound]
IC50 (human MAO-B (hMAO-B)): 0.098 µM | IC50 (human MAO-A (hMAO-A)): 0.27 ± 0.04 µM

COc1cc(O)ccc1C(=O)/C=C/c1ccc(O)cc1 [3-Deoxysappanchalcone, 2′-methoxy-4′,4″-dihydroxychalcone, reference compound]
IC50 (human MAO-B (hMAO-B)): 0.68 µM | IC50 (human MAO-A (hMAO-A)): 10.1 µM
